Measurements: US10080741B2, “Isoxazole derivatives as FXR agonists and methods of use thereof” (Enanta Pharmaceuticals, Inc., priority 2016, dated 2018)

Target: T1, human FXR (NR1H4) (Homo sapiens, UniProt Q96RI1)
T1 construct: host or cells: CHO (Chinese hamster ovary) reporter cells
T1 sequence (Q96RI1 1-486): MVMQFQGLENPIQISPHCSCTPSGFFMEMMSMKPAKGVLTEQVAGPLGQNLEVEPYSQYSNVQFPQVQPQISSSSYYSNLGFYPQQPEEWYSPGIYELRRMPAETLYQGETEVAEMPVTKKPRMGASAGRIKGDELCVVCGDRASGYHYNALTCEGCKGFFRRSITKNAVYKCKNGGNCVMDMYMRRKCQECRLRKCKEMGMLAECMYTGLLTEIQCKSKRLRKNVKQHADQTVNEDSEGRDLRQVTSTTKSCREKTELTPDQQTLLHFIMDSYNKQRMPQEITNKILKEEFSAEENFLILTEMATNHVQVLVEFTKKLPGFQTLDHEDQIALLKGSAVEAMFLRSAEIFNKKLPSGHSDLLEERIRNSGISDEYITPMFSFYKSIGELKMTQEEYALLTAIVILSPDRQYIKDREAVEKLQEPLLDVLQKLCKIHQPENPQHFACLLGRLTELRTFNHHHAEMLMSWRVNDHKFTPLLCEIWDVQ
Assay: Human FXR (NR1H4) Assay, luciferase reporter in CHO cells (Indigo Bioscience kit IB00601)
Format: cell-based
Details: for EC50: CHO cells expressing human NR1H4, 22 hours incubation, potency ranges; for Efficacy (%): efficacy normalized to CDCA set as 100%
Excerpt: Human FXR (NR1H4) Assay Determination of a ligand mediated Gal4 promoter driven transactivation to quantify ligand binding mediated activation of FXR. FXR Reporter Assay kit purchased from Indigo Bioscience (Catalogue number: IB00601) to determine the potency and efficacy of compound developed by Enanta that can induce FXR activation. The principle application of this reporter assay system is to quantify functional activity of human FXR. The assay utilizes non-human mammalian cells, CHO (Chinese hamster ovary) cells engineered to express human NR1H4 protein (referred to as FXR). Reporter cells also incorporate the cDNA encoding beetle luciferase which catalyzes the substrates and yields photon emission. Luminescence intensity of the reaction is quantified using a plate-reading luminometer, Envision. Reporter Cells include the luciferase reporter gene functionally linked to an FXR responsive promoter. Thus, quantifying changes in luciferase expression in the treated reporter cells provides a sensitive surrogate measure of the changes in FXR activity. […] The assay is according to the manufacturer's instructions. […] Retrieve Reporter Cells from −80° C. storage. Perform a rapid thaw of the frozen cells by transferring a 10 ml volume of 37° C. cell recovery medium into the tube of frozen cells. Recap the tube of Reporter Cells and immediately place it in a 37° C. water bath for 5-10 minutes. Retrieve the tube of Reporter Cell Suspension from the water bath. Sanitize the outside surface of the tube with a 70% alcohol swab, and then transfer it into the cell culture hood. Dispense 90 μl of cell suspension into each well of the 96-well Assay Plate. Transfer the plate into 37° C. incubator, allowing the cells adherent to the bottom of the well. Dilute compounds in Dilution Plate (DP), and administrate to cells at Assay Plate (AP). DMSO content of the samples was kept at 0.2%. Cells were incubated for additional 22 hours before luciferase activities were measured. Thirty minutes before intending to quantify FXR activity, remove Detection Substrate and Detection Buffer from the refrigerator and place them in a low-light area so that they may equilibrate to room temperature. Remove the plate's lid and discard all media contents by ejecting it into an appropriate waste container. Gently tap the inverted plate onto a clean absorbent paper towel to remove residual droplets. Cells will remain tightly adhered to well bottoms. Add 100 μl of luciferase detection reagent to each well of the assay plate. Allow the assay plate to rest at room temperature for at least 5 minutes following the addition of LDR. Set the instrument (Envision) to perform a single 5 second “plate shake” prior to reading the first assay well. Read time may be 0.5 second (500 mSec) per well.

CC(C)c1onc(-c2c(Cl)cccc2Cl)c1COc1ccc2cc(-c3cccc(C(=O)NS(=O)(=O)N(C)C)c3)sc2c1 [Example 318] was tested, and the EC50 was 100 to 1000 nM and the “Efficacy (%)” value was 116%.

CC(C)c1onc(-c2c(Cl)cccc2Cl)c1COc1ccc2cc(-c3cccc(C(=O)NS(=O)(=O)C4CC4)c3)sc2c1 [Example 303] was tested, and the EC50 was 100 to 1000 nM and the “Efficacy (%)” value was 190%.

CC(C)c1onc(-c2c(Cl)cccc2Cl)c1COc1ccc2cc(-c3cccc(C(=O)O)c3)sc2c1 [Compound (1), reference compound] was tested, and the EC50 was 100 to 1000 nM and the “Efficacy (%)” value was 220%.

For CC(C)c1onc(-c2c(Cl)cccc2Cl)c1COc1ccc2cc(-c3cccc(C(=O)NS(=O)(=O)c4ccc(C(C)(C)C)cc4)c3)sc2c1 [Example 312], the EC50 was 1000 to 10000 nM and the “Efficacy (%)” value was 132%.
